US11324774B2, “Compositions of oral alkaline salts and metabolic acid inducers and uses thereof” (Augusta University Research Institute, Inc., priority 2018, dated 2022)
Read-outs that look alike come from different tables or passages of the source.

Columns and labels:
[1] = tested on: kidney cells (M1/M2 macrophages)
[2] = for Glucose / HCO3− / Hct / pCO2 / pH / pO2: arterial blood, 0.1M NaHCO3 in drinking water
Source text: Arterial blood gas measurements: Dahl SS rats were anesthetized (2-5% isoflurane) and the left femoral artery was catheterized. Surgically implanted catheters were then tunneled under the skin and exposed between the shoulder blades. Catheters were protected by a light wire spring attached to a swivel (Instech Laboratories Inc, Plymouth Meeting, Pa.), which allows free 360-degree movement of the animal. Rats were individually housed and allowed to recover for 1 week before beginning experimental measurements. Catheters were filled with heparinized saline (30 U/mL) and connected to an infusion pump (Phd2000, Harvard Apparatus, Holliston, Mass.). Infusions of heparinized saline were maintained at 100 μL/hr over the course of the protocol. 0.2 mL arterial blood samples were taken prior to placing rats on treated water, on day 3 of low salt feeding and on day 7 of high salt feeding by disconnecting the catheter from the infusion pump proximal to emergence of the catheter from the rat and drawing arterial blood into a heparinized 1 mL syringe. Arterial blood gas measurements were performed on a Rapidpoint 4055 Blood gas analyzer (Seimens AG, Munich Germany) within 20 minutes of taking the sample. Arterial blood gas measurements on day 14 of HS feeding were taken at the time of sacrifice by left ventricular puncture in anesthetized (2-5% isoflurane) rats.
Rat protocols: Dahl SS rats: All rats were maintained on low salt chow with ad libitum water (tap water). […] Following four days of low salt (LS) feeding, rats were placed on an 8% HS diet (AIN76A 8%; Dyets) for two weeks. 24 hour urine collections were obtained on day 3 of low salt and day 7 and day 14 of high salt feeding if applicable. Following 14 days of HS feeding, rats were anesthetized with isoflurane (2-5%) and tissue harvested for analysis.
Blood gas/electrolytes: In a parallel study, rats were implanted with a femoral arterial catheter to allow arterial blood sampling.

[3] = tested on: T-regulatory cells (FOXP3+ T-regs), TH17 cells; assay: Circulating T-regulatory and TH17 cells in rats; type: in vivo
parasympathetic activity = tested on: parasympathetic activity
Protocol: Changes in heart rate (HR) and RR-interval were monitored over the last 5 min of a 15 min period of quiet rest in a supine position to establish baseline values. Time-domain indices of heart rate variability (HRV) including the root mean square differences of successive normal sinus RR intervals (rMSSD) and the percentage of successive normal sinus RR intervals >50 ms (pNN50) were calculated from a 3-lead ECG that was continuously recorded via a Finapres NOVA (Finapres Medical Systems, The Netherlands). Following treatment an additional 5 min segment of data was collected in the same manner and used to calculate post-treatment values of rMSSD and pNN50.
Parasympathetic activity was determined as described above. Potassium levels were determined using standard clinical laboratory procedures (Labcorp).

[4] = Kidney, 14 Days HS, 0.1M NaHCO3 in drinking water
[5] = Kidney, 3 days LS, 0.1M NaHCO3 in drinking water
[6] = healthy rats, 3 days of drinking, 0.1M

## O=C([O-])O.[Na+] [NaHCO3, sodium bicarbonate]
[1]; 14 days HS
  IL-10 expressing macrophages (M2-polarized macrophages) in the kidney: increase
[1]; 14 days HS, p<0.01
  TNFα expressing macrophages (M1-polarized macrophages) in the kidney: decrease
[1]; [4]
  CD3 (% total kidney): 1.8 ± 0.3%
  CD4 (% of CD3): 55 ± 2%
  CD11b/c (% total kidney): 0.4 ± 0.04%
  CD44 (% of CD3): 36 ± 5%
  CD69 (% of CD3): 2.8 ± 0.7%
  FOXP3 (% of CD3/CD4): 3.3 ± 0.5%
  IL-10 (% of total kidney): 4.2 ± 0.3%
  IL-17 (% of total kidney): 0.7 ± 0.1%
  M1 (% of total kidney): 0.12 ± 0.02%
  M2 (% of total kidney): 0.2 ± 0.03%
  TNFα (% of total kidney): 2.0 ± 0.3%
[1]; [5]
  CD3: 1.1 ± 0.3%
  CD4: 54 ± 2%
  CD11b/c: 0.24 ± 0.02%
  CD44: 52 ± 3%
  CD69: 0.9 ± 0.3%
  FOXP3: 2.6 ± 0.5%
  IL-10: 4.8 ± 0.5%
  IL-17: 0.4 ± 0.2%
  M1: 0.16 ± 0.04%
  M2: 0.36 ± 0.02%
  TNFα: 1.4 ± 0.2%
[1]; after removal of the spleen or manipulation of the spleen to midline, HS diet for 2 weeks
  effect of NaHCO3 to promote M1 to M2 polarization in the kidney: completely abolished
[1]; low salt fed Dahl SS rats, p=0.007
  macrophage polarization in kidney tissue: polarization from predominately M1 to M2
[1]; spleen and kidney, 14 days HS, alternative markers CD68/CD163/CD206
  macrophage polarization with both marker sets: M1 to M2 polarization
[2]; across the course of the study, versus vehicle
  markers of plasma acid base status (pH, pCO2, HCO3−): no significant difference
[2]; Day 3 LS
  Glucose: 195 ± 25 mg/dL
  HCO3−: 25.2 ± 0.7 mM
  Hct: 40 ± 0%
  pCO2: 38.3 ± 1.1
  pH: 7.43 ± 0.01
  pO2: 93.5 ± 2.4
[2]; Day 7 HS
  Glucose: 160 ± 16 mg/dL
  HCO3−: 26.9 ± 0.6 mM
  Hct: 39 ± 2%
  pCO2: 39.4 ± 3.2
  pH: 7.46 ± 0.02
  pO2: 113 ± 16
[2]; Day 14 HS
  Glucose: 235.4 ± 35 mg/dL
  HCO3−: 26.1 ± 1.0 mM
  Hct: 41 ± 2%
  pCO2: 37.4 ± 4.9
  pH: 7.46 ± 0.03
  pO2: 88.7 ± 8.5
[3]; [6]
  anti-inflammatory T-regulatory cells: robust but identical increases
  pro-inflammatory TH17 cells: decreases
[3]; rats, 4 days in drinking water
  circulating anti-inflammatory T cells (FOXP3+ T-regs): significantly increased
Parasympathetic activity; ingestion for 2 weeks
  parasympathetic activity (rMSSD): improves
Parasympathetic activity; single dose, 60 minutes
  parasympathetic activity (rMSSD): improves
